One test concerns HCT116 cells. As to the kind of experiment: HCT116 cell proliferation assay (CellTiter-Glo, 10 days). It is filed as cell-based. The following applies: growth inhibition, CTG assay Day 10. An excerpt: • I. Experimental materials and instruments • 1. HCT116 cell line (Nanjing Kebai Biotechnology Co., Ltd., CBP60028) • 2. HCT116 MTAP-/- cell line (Nanjing Kebai Biotechnology Co., Ltd., CBP75002) • 3. DMSO (Sigma, D2650) • 4. McCoy's 5A medium (Gibco, 16600-082) • 5. Foetal bovine serum (FBS) (Gibco, 10091148) • 6. Phosphate buffered saline (DPBS) pH 7.4 (Gibco, 14190-144) • 7. Pen strep (PS) (Gibco, 15140-122) • 8. 0.25% Typsin-EDTA (1×) (Gibco, 25200-072) • 9. CellTiter-Glo® Luminescent Cell Viability Assay (Promega, G7572) • 10. 96-well round-bottom plate (JET, TCP002096) • 11. 96-well black clear bottom plate (Hangzhou Xinyou Biotechnology Co., Ltd., 060096) • 12. 1.2 mL 96-well deep well plate, clear, sterile, square-well, V-bottom (Titan, 02089063) • 13. 15-mL centrifuge tube (Titan) • 14. Biosafety cabinet (Thermo, 1300AII) • 15. Cell counter (Countstar, IC1000) • 16. Incubator (Thermo, I160) • 17. Centrifuge (Beckman coulter, Allegra X-12 centrifuge) • 18. PHERAstar FS microplate reader (BMG Labtech) • II. Experimental procedure • 1. Cell plating (Day 0) • a) The cell morphology was observed under a microscope to ensure confluence reached approximately 90%. • b) The cell supernatant was aspirated, the cells were washed once with PBS, and then the PBS was removed; and the cells were digested by adding an appropriate amount of trypsin, and left to stand at 37°C for 3 minutes. • c) The digestion was terminated by adding an equal volume of McCoy's 5A medium containing 10% FBS, and the cell suspension was collected and centrifuged at 300 g for 3 minutes; and the cells were resuspended in an appropriate amount of fresh medium. • d) The resuspended cell suspension was taken for counting. • e) The cell suspension was diluted to 1e4/mL using McCoy's 5A medium containing 10% FBS, and seeded at 50 µL per well, corresponding to 500 cells/well for HCT116 and 500 cells/well for HCT116 MTAP-/-. • f) The cell plate was placed in a 37°C, 5% carbon dioxide incubator and incubated overnight. • 2. Compound treatment (Day 1) • a) Each compound was serially diluted in DMSO to generate a 9-point concentration gradient (starting concentration: 10000 µM, 3-fold dilution; the highest concentration may be adjusted individually based on IC50 of different compounds); for example, in a 96-well round-bottom compound-dilution plate, 5 µL of the compound was sequentially diluted into 10 µL of DMSO. • b) Each concentration point of every compound was then diluted 250-fold into the corresponding volume of McCoy's 5A medium. • c) To each cell plate, 50 µL of the diluted compound solution as described above was added sequentially to the cell supernatant (50 µL/well). • d) The compound-treated cell plate was placed in a 37°C, 5% carbon dioxide incubator and incubated. • 3. […]
A general note: In ATP-based viability assays light output follows the ATP content of the culture.

For the next test, the system named is HCT116 MTAP-/- cells. As to the kind of experiment: HCT116 MTAP-/- cell proliferation assay (CellTiter-Glo, 10 days). The format is cell-based. The following applies: growth inhibition, CTG assay Day 10. The source says:
• I. Experimental materials and instruments • 1. HCT116 cell line (Nanjing Kebai Biotechnology Co., Ltd., CBP60028) • 2. HCT116 MTAP-/- cell line (Nanjing Kebai Biotechnology Co., Ltd., CBP75002) • 3. DMSO (Sigma, D2650) • 4. McCoy's 5A medium (Gibco, 16600-082) • 5. Foetal bovine serum (FBS) (Gibco, 10091148) • 6. Phosphate buffered saline (DPBS) pH 7.4 (Gibco, 14190-144) • 7. Pen strep (PS) (Gibco, 15140-122) • 8. 0.25% Typsin-EDTA (1×) (Gibco, 25200-072) • 9. CellTiter-Glo® Luminescent Cell Viability Assay (Promega, G7572) • 10. 96-well round-bottom plate (JET, TCP002096) • 11. 96-well black clear bottom plate (Hangzhou Xinyou Biotechnology Co., Ltd., 060096) • 12. 1.2 mL 96-well deep well plate, clear, sterile, square-well, V-bottom (Titan, 02089063) • 13. 15-mL centrifuge tube (Titan) • 14. Biosafety cabinet (Thermo, 1300AII) • 15. Cell counter (Countstar, IC1000) • 16. Incubator (Thermo, I160) • 17. Centrifuge (Beckman coulter, Allegra X-12 centrifuge) • 18. PHERAstar FS microplate reader (BMG Labtech) • II. Experimental procedure • 1. Cell plating (Day 0) • a) The cell morphology was observed under a microscope to ensure confluence reached approximately 90%. • b) The cell supernatant was aspirated, the cells were washed once with PBS, and then the PBS was removed; and the cells were digested by adding an appropriate amount of trypsin, and left to stand at 37°C for 3 minutes. • c) The digestion was terminated by adding an equal volume of McCoy's 5A medium containing 10% FBS, and the cell suspension was collected and centrifuged at 300 g for 3 minutes; and the cells were resuspended in an appropriate amount of fresh medium. • d) The resuspended cell suspension was taken for counting. • e) The cell suspension was diluted to 1e4/mL using McCoy's 5A medium containing 10% FBS, and seeded at 50 µL per well, corresponding to 500 cells/well for HCT116 and 500 cells/well for HCT116 MTAP-/-. • f) The cell plate was placed in a 37°C, 5% carbon dioxide incubator and incubated overnight. • 2. Compound treatment (Day 1) • a) Each compound was serially diluted in DMSO to generate a 9-point concentration gradient (starting concentration: 10000 µM, 3-fold dilution; the highest concentration may be adjusted individually based on IC50 of different compounds); for example, in a 96-well round-bottom compound-dilution plate, 5 µL of the compound was sequentially diluted into 10 µL of DMSO. • b) Each concentration point of every compound was then diluted 250-fold into the corresponding volume of McCoy's 5A medium. • c) To each cell plate, 50 µL of the diluted compound solution as described above was added sequentially to the cell supernatant (50 µL/well). • d) The compound-treated cell plate was placed in a 37°C, 5% carbon dioxide incubator and incubated. • 3. Re-digestion, re-plating and compound treatment (Day 5) • a) After 5 days of compound treatment, the compound-containing medium was aspirated, and the cells were rinsed once with PBS (100 µL/well); and the PBS was removed immediately. • b) The cells were digested by adding 25 µL of trypsin and incubated at 37°C for 3 minutes, and then the digestion was terminated by adding 175 µL/well of McCoy's 5A medium containing 10% FBS. • c) The cells were mixed thoroughly using a pipette, and re-plated at 1 : 20; and specifically, 10 µL of the cell suspension was aspirated to a new 96-well plate (pre-filled with 40 µL of McCoy's 5A medium containing 10% FBS. • d) Compounds were prepared and added according to steps a) to c) in Section 2, with 50 µL added per well. • e) The compound-treated cell plate was placed in a 37°C, 5% carbon dioxide incubator and incubated. • 4. […]

Test [1] deals with T1, Recombinant human PRMT5: MEP50 protein (Homo sapiens, UniProt O14744).
T1 construct: purchased active motif 31521
As to the kind of experiment: Inhibitory activity against human PRMT5 enzymatic activity (HTRF quantification of SAH, +MTA). The format is biochemical. The following applies: +1 µM MTA; histone H4 peptide substrate (1-21), SAM; 37°C 120 min. As for the experimental part:
• 1. Recombinant human PRMT5: MEP50 protein (active motif, 31521) • 2. EPIgeneous Methyltransferase kit (cisbio, 62SAHPEH) • 3. 96-well plate (Sangon Biotech, F610960-0010) • 4. 384-well white plate (Perkin Elmer, 6007290) • 5. 1 M Tris-HCl [pH 8.5] (Sangon Biotech, B548141) • 6. Histone H4 peptide substrates (1-21) (BPS bioscience, 52014) • 7. 5'-deoxy-5'-(methylthio)adenosine (Aladdin, D168979-25 mg) • 8. Tween-20 (Sangon Biotech, A100777-0500) • 9. DMSO (Sigma, D2650) • 10. Incubator (Shanghai Boxun Medical Biological Instrument Corp.) • 11. PHERAstar FS microplate reader (BMG Labtech)
PRMT5 can induce the transfer of a methyl group from S-adenosylmethionine (SAM) to a histone H4 peptide substrate (1-21), generating S-adenosylhomocysteine (SAH). In this experiment, the amount of SAH produced in the reaction is quantified using a Homogeneous Time-Resolved Fluorescence (HTRF) method to evaluate the inhibitory activity of compounds against PRMT5 enzymatic activity.
The sample diluent containing (or not containing) 1 µM 5 '-deoxy-5' - (methylthiyl) adenosine (MTA) was prepared using the EPIgeneous Diluent Buffer from the EPIgeneous Methyltransferase kit. With reference to the instructions, SAM and SAH standards were serially diluted and dispensed at 10 µL per well (in duplicate for each concentration). 2 µL of EPIgeneous Detection Buffer 1 was added to each well, and the plate was centrifuged, shaken to mix thoroughly, and placed at room temperature for 10 min. The SAH d2 Reagent was diluted 32-fold with EPIgeneous Detection Buffer 2, and 4 µL of the diluted SAH-d2 solution was added to each well. The plate was centrifuged and shaken for 2 min to mix thoroughly. The SAH Tb Cryptate Antibody was diluted 50-fold in EPIgeneous Detection Buffer 2. 4 µL of the diluted Tb Cryptate Antibody solution was added to each well, and the plate was centrifuged, shaken for 2 min to mix thoroughly, and left to stand at room temperature for 60 min, followed by reading on a PHERAstar FS microplate reader to obtain the 665/620 ratio. Plotting SAH concentration against the ratio to generate an x-y curve yields a corresponding calculation formula.
Reaction buffer (1×): 50 mM Tris-HCl [pH 8.5], 1 mM DTT, 0.005% Tween-20.
Compound preparation: a 20 mM solution of test compound in 100% DMSO was diluted in 100% DMSO to 1 mM as the highest concentration, and the solution at this concentration was then subjected to a 10-point, 3-fold serial dilution in 100% DMSO in a 96-well plate. Wells containing 100% DMSO served as the blank control. The above-described serially diluted compounds and the 100% DMSO were diluted 20-fold with the reaction buffer to prepare 5× compound solutions, which were mixed thoroughly for use.
The PRMT5:MEP50 was diluted in the reaction buffer to a final concentration of 12.5 nM. Then, 4 µL of the 12.5 nM PRMT5:MEP50 solution was added to each well of a 384-well plate. Wells containing 4 µL of the reaction buffer served as the negative control wells. 2 µL of the 5× compound solution was added to each well. For the negative control wells (no enzyme, no compound) and the positive control wells (no compound), 2 µL of 5% DMSO was added. The plate was sealed with a membrane, centrifuged, shaken for 2 min to mix thoroughly, and placed at room temperature for 20 min.
Preparation of substrate mixture solution: The substrate mixture solution containing 1.5 µM histone H4 peptide substrate (1-21) and 2.5 µM SAM, or 1.5 µM histone H4 peptide substrate (1-21), 2.5 µM SAM and 2.5 µM MTA was prepared in the reaction buffer.
The reaction was initiated by adding 4 µL of the substrate mixture solution (-/+ MTA) to each well. The plate was sealed with a membrane, centrifuged, shaken for 2 min to mix thoroughly, and incubated at 37°C for 120 min in a constant temperature incubator.
Detection: The detection was performed by using the EPIgeneous Methyltransferase kit. […]
Background: TR-FRET usually uses a lanthanide donor and a delayed reading to cut background.

SMILES strings stand for the structures.

T1 sequence (O14744 whole entry): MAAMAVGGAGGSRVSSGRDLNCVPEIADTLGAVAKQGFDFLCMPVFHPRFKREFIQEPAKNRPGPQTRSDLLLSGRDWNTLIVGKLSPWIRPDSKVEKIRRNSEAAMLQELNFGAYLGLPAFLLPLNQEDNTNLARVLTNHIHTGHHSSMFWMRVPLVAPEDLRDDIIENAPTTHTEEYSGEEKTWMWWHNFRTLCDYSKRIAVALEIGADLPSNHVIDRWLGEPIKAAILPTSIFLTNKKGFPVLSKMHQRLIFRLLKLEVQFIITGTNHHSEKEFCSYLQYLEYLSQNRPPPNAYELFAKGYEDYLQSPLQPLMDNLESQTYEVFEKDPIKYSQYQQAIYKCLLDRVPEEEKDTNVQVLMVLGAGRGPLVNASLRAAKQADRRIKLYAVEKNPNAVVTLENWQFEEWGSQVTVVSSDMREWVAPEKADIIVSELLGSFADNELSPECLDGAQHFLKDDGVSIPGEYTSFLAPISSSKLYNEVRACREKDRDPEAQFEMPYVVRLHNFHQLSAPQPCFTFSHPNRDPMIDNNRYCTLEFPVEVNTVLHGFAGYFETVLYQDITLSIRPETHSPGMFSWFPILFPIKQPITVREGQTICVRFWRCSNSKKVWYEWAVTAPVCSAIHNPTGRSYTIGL
T1 sequence (Q9BQA1 whole entry partner): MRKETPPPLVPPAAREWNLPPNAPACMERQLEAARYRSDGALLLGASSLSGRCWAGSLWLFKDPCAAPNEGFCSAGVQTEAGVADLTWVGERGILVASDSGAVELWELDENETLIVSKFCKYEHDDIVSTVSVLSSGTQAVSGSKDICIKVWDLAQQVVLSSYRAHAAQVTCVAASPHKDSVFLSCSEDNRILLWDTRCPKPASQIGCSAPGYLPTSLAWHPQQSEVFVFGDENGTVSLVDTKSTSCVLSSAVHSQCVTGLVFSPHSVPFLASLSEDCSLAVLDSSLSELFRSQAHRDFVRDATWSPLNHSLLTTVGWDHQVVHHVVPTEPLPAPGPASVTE

Consider `Cn1ncc(-c2ccc3c(=O)[nH]nc(CN)c3c2)c1-c1c(F)cc2c(c1C#N)O[C@@H]1CC[C@@H]1O2` (atropisomer, axis not shown; (M)) [Compound 1-p2, (M)-(2aR,8aS)-5-(4-(4-(aminomethyl)-1-oxo-1,2-dihydrophthalazin-6-yl)-1-methyl-1H-pyrazol-5-yl)-6-fluoro-1,2,2a,8a-tetrahydrobenzo[b]cyclobuta[e][1,4]dioxine-4-carbonitrile], for which the IC50 in the test on HCT116 cells is 2350 nM; with HCT116 MTAP-/- cells, 13.3 nM.

Regarding `[2H]C([2H])([2H])n1ncc(-c2ccc3c(=O)[nH]nc(CN)c3c2)c1-c1c(F)c(Cl)c2c(c1C#N)O[C@H]1CC[C@H]1O2` (atropisomer, axis not shown; (M)) [Compound 11-p3, (M)-(2aS,8aR)-5-(4-(4-(aminomethyl)-1-oxo-1,2-dihydrophthalazin-6-yl)-1-(methyl-d3)-1H-pyrazol-5-yl)-7-chloro-6-fluoro-1,2,2a,8a-tetrahydrobenzo[b]cyclobuta[e][1,4]dioxine-4-carbonitrile], the IC50 is 5.4 nM in test [1] and 4.6 nM in the test on HCT116 MTAP-/- cells (Homo sapiens, HCT-116, 240 h).

With `[2H]C([2H])([2H])n1ncc(-c2ccc3c(=O)[nH]nc(CN)c3c2)c1-c1c(F)c(Cl)c2c(c1C#N)N1CCC[C@H]1CO2` (atropisomer, axis not shown; (M)) [Compound 13-p1, (M)-(S)-8-(4-(4-(aminomethyl)-1-oxo-1,2-dihydrophthalazin-6-yl)-1-(methyl-d3)-1H-pyrazol-5-yl)-6-chloro-7-fluoro-2,3,3a,4-tetrahydro-1H-benzo[b]pyrrolo[1,2-d][1,4]oxazine-9-carbonitrile], the concentration for half-maximal inhibition (IC50) came out at 2.8 nM in test [1] and 15 nM in the test on HCT116 MTAP-/- cells (Homo sapiens, HCT-116, 240 h).

Take `[2H]C([2H])([2H])n1ncc(-c2ccc3c(=O)[nH]nc(CN)c3c2)c1-c1c(F)cc2c(c1C#N)O[C@@H]1CC[C@@H]1O2` (single isomer, unassigned) [Compound 2-p2]: the IC50 in the test on HCT116 cells (Homo sapiens, HCT-116, 240 h) turned out to be 2370 nM; in test [1], 7.01 nM; in the test with HCT116 MTAP-/- cells (Homo sapiens, HCT-116, 240 h) it was 13.5 nM.

The term IC50 denotes the concentration needed to halve the response being measured.

Source of the values: patent publication EP4759817A1, “HETEROARYL COMPOUND, PREPARATION METHOD THEREFOR, AND USE THEREOF IN MEDICINE” (Jiangsu Hengrui Pharmaceuticals Co., Ltd., priority 2023, dated 2025).
